Laboratory results taken from patent US10265307B2, “Thiazolecarboxamides and pyridinecarboxamide compounds useful as Pim kinase inhibitors” (Incyte Corporation, priority 2013, dated 2019).

Tests used:
Assay type in all cases: biochemical
Pim-1 = Pim-1 (Homo sapiens (Human), UniProt P11309); test: Pim-1 kinase assay; conditions: 1 mM ATP; read-out: Pim1 IC50
Method: Supplementation of the STOP buffer with beads and stopping the reactions were done under reduced light. Prior to the stopping reactions STOP buffer with beads was pre-incubated for 1 h in the dark at room temperature. After stopping the reactions, plates were incubated for 1 h in the dark at room temperature before reading on a PHERAstar FS plate reader (BMG Labtech) under reduced light.

Pim-2 = Pim-2 (Homo sapiens (Human), UniProt Q9P1W9); test: Pim-2 kinase assay; conditions: 1 mM ATP; read-out: Pim2 IC50
Pim-3 = Pim-3 (Homo sapiens (Human), UniProt Q86V86); test: Pim-3 kinase assay; conditions: 1 mM ATP; read-out: Pim3 IC50
In short: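 AlphaScreen-type assay: […] Pim-3 phosphorylates 0.05 μM biotin-BAD peptide with 1 mM ATP, 1 h at 25 °C, pH 7.5 Tris buffer with MgCl2 and DTT. EDTA stop with phospho-BAD (Ser112) antibody and donor/acceptor beads, 1 h dark incubation before reading.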

Chain of Pim-1 (P11309 whole entry): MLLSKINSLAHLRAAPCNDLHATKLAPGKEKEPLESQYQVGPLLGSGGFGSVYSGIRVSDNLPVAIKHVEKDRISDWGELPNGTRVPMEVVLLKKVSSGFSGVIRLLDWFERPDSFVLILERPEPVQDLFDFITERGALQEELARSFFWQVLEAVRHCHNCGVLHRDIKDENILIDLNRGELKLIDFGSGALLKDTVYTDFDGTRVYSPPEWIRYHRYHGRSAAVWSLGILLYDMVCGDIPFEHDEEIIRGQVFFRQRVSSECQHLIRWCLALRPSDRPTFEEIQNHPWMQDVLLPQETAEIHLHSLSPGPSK
Chain of Pim-2 (Q9P1W9 whole entry): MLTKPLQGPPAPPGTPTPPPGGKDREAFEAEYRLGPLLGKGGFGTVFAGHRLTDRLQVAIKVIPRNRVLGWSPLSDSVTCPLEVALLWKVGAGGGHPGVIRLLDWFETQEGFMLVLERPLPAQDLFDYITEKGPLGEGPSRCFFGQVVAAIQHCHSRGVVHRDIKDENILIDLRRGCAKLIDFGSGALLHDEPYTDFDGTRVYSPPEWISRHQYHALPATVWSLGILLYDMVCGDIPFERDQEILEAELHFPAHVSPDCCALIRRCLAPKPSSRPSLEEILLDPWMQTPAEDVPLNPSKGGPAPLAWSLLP

Structure (SMILES) | IC50 (Pim-1) | IC50 (Pim-2) | IC50 (Pim-3)
N[C@H]1CCCN(c2c(NC(=O)c3ccc(F)c(-c4c(F)cccc4F)n3)cnc3c2CCC3O)C1 (single isomer, unassigned) [22 (Diastereoisomer 1)] | ≤ 100 nM | 100 to 1000 nM | ≤ 100 nM
C[C@@H]1C[C@H](N)CN(c2c(NC(=O)c3ccc(F)c(-c4c(F)cc(C(C)(C)O)cc4F)n3)cnc3c2CCC3O)C1 (single isomer, unassigned) [67 (Diastereoisomer 2)] | ≤ 100 nM | ≤ 100 nM | ≤ 100 nM
Nc1ncc(-c2c(F)cccc2F)nc1C(=O)Nc1cnc2c(c1N1CCC[C@H](N)C1)CCC2O (single isomer, unassigned) [62 (Diastereoisomer 1)] | ≤ 100 nM | 100 to 1000 nM | ≤ 100 nM
COC1CCc2c1ncc(NC(=O)c1nc(-c3c(F)cccc3F)sc1N)c2N1CCC[C@H](N)C1 (stereo partly drawn) [Example 17, 5-Amino-N-{4-[(3S)-3-aminopiperidin-1-yl]-7-methoxy-6,7-dihydro-5H-cyclopenta[b]pyridin-3-yl}-2-(2,6-difluorophenyl)-1,3-thiazole-4-carboxamide] | ≤ 100 nM | 100 to 1000 nM | ≤ 100 nM
Nc1sc(-c2c(F)cccc2F)nc1C(=O)Nc1cnc2c(c1N1CCC[C@H](N)C1)CCC2O (single isomer, unassigned) [15 (Diastereoisomer 2)] | ≤ 100 nM | ≤ 100 nM | ≤ 100 nM
N[C@H]1CCCN(c2c(NC(=O)c3csc(-c4c(F)cccc4F)n3)cnc3c2CCO3)C1 [Example 10, N-{4-[(3S)-3-Aminopiperidin-1-yl]-2,3-dihydrofuro[2,3-b]pyridin-5-yl}-2-(2,6-difluorophenyl)-1,3-thiazole-4-carboxamide] | ≤ 100 nM | 100 to 1000 nM | ≤ 100 nM
